Measured values published in ChEMBL document CHEMBL3045835, “Comparative study of conventional and microwave-assisted synthesis of some Schiff bases and their potential as antimicrobial agents” (2012).
≈ marks a conversion by molar mass, not a printed value.

How the values were obtained:
Assay type in all cases: functional
[1] = system: Pseudomonas aeruginosa; assay: Antibacterial activity against Pseudomonas aeruginosa MTCC 424 at 500 ug/ml after 18 hr by cup-plate method; settings: MTCC 424, 18 h, read-out: DIZ
[2] = system: Pseudomonas aeruginosa; assay: Antibacterial activity against Pseudomonas aeruginosa MTCC 424 at 200 ug/ml after 18 hr by cup-plate method; settings: MTCC 424, 18 h, read-out: DIZ
[3] = system: Pseudomonas aeruginosa; assay: Antibacterial activity against Pseudomonas aeruginosa MTCC 424 at 100 ug/ml after 18 hr by cup-plate method; settings: MTCC 424, 18 h, read-out: DIZ
[4] = system: Micrococcus luteus; assay: Antibacterial activity against Micrococcus luteus MTCC 1538 at 1500 ug/ml after 18 hr by cup-plate method; settings: MTCC 1538, 18 h, read-out: DIZ
[5] = system: Micrococcus luteus; assay: Antibacterial activity against Micrococcus luteus MTCC 1538 at 1000 ug/ml after 18 hr by cup-plate method; settings: MTCC 1538, 18 h, read-out: DIZ
[6] = system: Micrococcus luteus; assay: Antibacterial activity against Micrococcus luteus MTCC 1538 at 500 ug/ml after 18 hr by cup-plate method; settings: MTCC 1538, 18 h, read-out: DIZ
[7] = system: Micrococcus luteus; assay: Antibacterial activity against Micrococcus luteus MTCC 1538 at 200 ug/ml after 18 hr by cup-plate method; settings: MTCC 1538, 18 h, read-out: DIZ
[8] = system: Micrococcus luteus; assay: Antibacterial activity against Micrococcus luteus MTCC 1538 at 100 ug/ml after 18 hr by cup-plate method; settings: MTCC 1538, 18 h, read-out: DIZ
[9] = system: Bacillus pumilus; assay: Antibacterial activity against Bacillus pumilus MTCC 1456 at 1500 ug/ml after 18 hr by cup-plate method; settings: MTCC 1456, 18 h, read-out: DIZ
[10] = system: Bacillus pumilus; assay: Antibacterial activity against Bacillus pumilus MTCC 1456 at 1000 ug/ml after 18 hr by cup-plate method; settings: MTCC 1456, 18 h, read-out: DIZ
[11] = system: Bacillus pumilus; assay: Antibacterial activity against Bacillus pumilus MTCC 1456 at 500 ug/ml after 18 hr by cup-plate method; settings: MTCC 1456, 18 h, read-out: DIZ
[12] = system: Bacillus pumilus; assay: Antibacterial activity against Bacillus pumilus MTCC 1456 at 200 ug/ml after 18 hr by cup-plate method; settings: MTCC 1456, 18 h, read-out: DIZ
[13] = system: Bacillus pumilus; assay: Antibacterial activity against Bacillus pumilus MTCC 1456 at 100 ug/ml after 18 hr by cup-plate method; settings: MTCC 1456, 18 h, read-out: DIZ
[14] = system: Bacillus subtilis; assay: Antibacterial activity against Bacillus subtilis MTCC 441 at 1000 ug/ml after 18 hr by cup plate method; settings: MTCC 441, 18 h, read-out: DIZ
[15] = system: Bacillus subtilis; assay: Antibacterial activity against Bacillus subtilis MTCC 441 at 1500 ug/ml after 18 hr by cup plate method; settings: MTCC 441, 18 h, read-out: DIZ
[16] = system: Bacillus subtilis; assay: Antibacterial activity against Bacillus subtilis MTCC 441 at 500 ug/ml after 18 hr by cup plate method; settings: MTCC 441, 18 h, read-out: DIZ
[17] = system: Bacillus subtilis; assay: Antibacterial activity against Bacillus subtilis MTCC 441 at 200 ug/ml after 18 hr by cup plate method; settings: MTCC 441, 18 h, read-out: DIZ
[18] = system: Bacillus subtilis; assay: Antibacterial activity against Bacillus subtilis MTCC 441 at 100 ug/ml after 18 hr by cup plate method; settings: MTCC 441, 18 h, read-out: DIZ
[19] = system: Staphylococcus aureus; assay: Antibacterial activity against Staphylococcus aureus MTCC 1430 at 1500 ug/ml after 18 hr by cup-plate method; settings: MTCC 1430, 18 h, read-out: DIZ
[20] = system: Staphylococcus aureus; assay: Antibacterial activity against Staphylococcus aureus MTCC 1430 at 1000 ug/ml after 18 hr by cup-plate method; settings: MTCC 1430, 18 h, read-out: DIZ
[21] = system: Staphylococcus aureus; assay: Antibacterial activity against Staphylococcus aureus MTCC 1430 at 500 ug/ml after 18 hr by cup-plate method; settings: MTCC 1430, 18 h, read-out: DIZ
[22] = system: Staphylococcus aureus; assay: Antibacterial activity against Staphylococcus aureus MTCC 1430 at 200 ug/ml after 18 hr by cup-plate method; settings: MTCC 1430, 18 h, read-out: DIZ
[23] = system: Staphylococcus aureus; assay: Antibacterial activity against Staphylococcus aureus MTCC 1430 at 100 ug/ml after 18 hr by cup-plate method; settings: MTCC 1430, 18 h, read-out: DIZ
[24] = system: Penicillium chrysogenum; assay: Antifungal activity against Penicillium chrysogenum MTCC 161 after 24 hr by broth dilution method; settings: MTCC 161, 24 h
[25] = system: Aspergillus niger; assay: Antifungal activity against Aspergillus niger MTCC 2546 after 24 hr by broth dilution method; settings: MTCC 2546, 24 h
[26] = system: Escherichia coli; assay: Antibacterial activity against Escherichia coli MTCC 1573 after 24 hr by broth dilution method; settings: MTCC 1573, 24 h
[27] = system: Pseudomonas fluorescens; assay: Antibacterial activity against Pseudomonas fluorescens MTCC 2421 after 24 hr by broth dilution method; settings: MTCC 2421, 24 h

SMILES: Clc1ccc(/N=C/c2cccs2)cc1
- zone of inhibition at 500 µg/mL [1]: 16 mm
- zone of inhibition at 200 µg/mL [2]: 13 mm
- zone of inhibition at 100 µg/mL [3]: 10 mm
- zone of inhibition at 1500 µg/mL [4]: 24 mm
- zone of inhibition at 1000 µg/mL [5]: 20 mm
- zone of inhibition at 500 µg/mL [6]: 18 mm
- zone of inhibition at 200 µg/mL [7]: 15 mm
- zone of inhibition at 100 µg/mL [8]: 11 mm
- zone of inhibition at 1500 µg/mL [9]: 20 mm
- zone of inhibition at 1000 µg/mL [10]: 18 mm
- zone of inhibition at 500 µg/mL [11]: 17 mm
- zone of inhibition at 200 µg/mL [12]: 15 mm
- zone of inhibition at 100 µg/mL [13]: 13 mm
- zone of inhibition at 1000 µg/mL [14]: 18 mm
- zone of inhibition at 1500 µg/mL [15]: 21 mm
- zone of inhibition at 500 µg/mL [16]: 14 mm
- zone of inhibition at 200 µg/mL [17]: 12 mm
- zone of inhibition at 100 µg/mL [18]: 11 mm
- zone of inhibition at 1500 µg/mL [19]: 18 mm
- zone of inhibition at 1000 µg/mL [20]: 16 mm
- zone of inhibition at 500 µg/mL [21]: 15 mm
- zone of inhibition at 200 µg/mL [22]: 13 mm
- zone of inhibition at 100 µg/mL [23]: 12 mm
- MIC [24]: 300 µg/mL (≈ 1350 µM)
- MIC [25]: 400 µg/mL (≈ 1800 µM)
- MIC [26]: 200 µg/mL (≈ 902 µM)
- MIC [27]: 300 µg/mL (≈ 1350 µM)
